Results on 67 compounds are retold here after PubChem BioAssay AID602464 (Sanford-Burnham Center for Chemical Genomics, 2012).

In the assay the test system is Gli-responsive luciferase reporter cells, SUFU pathway antagonism. The experiment in a line: blockers of Gli reporter signaling – cell-based, luciferase luminescence, uHTS hits, dose response (AID 602464).

A word on the IC50: it is the concentration that inhibits the measured activity by half.

Structures are written as SMILES. Activity calls are given as the source filed them. Cut-off read from the data, not from the text of the source: active = IC50 below about 20 µM; inactive = the rest.

With `CCN(CC)S(=O)(=O)c1ccc(S(=O)(=O)N2CCCC(C(=O)NC3CC3)C2)cc1` (configuration not stated), the IC50 is 7.52 µM. The same measure for `CC(CC(=O)N1CCN(c2cccc(Cl)c2)CC1)S(=O)(=O)c1ccc2c(c1)NC(=O)CO2` (configuration not stated): 6.43 µM; for `CC1CCCCC1NS(=O)(=O)c1ccc(S(=O)(=O)NCc2ccncc2)cc1` (configuration not stated): 5.58 µM; for `COc1cc2c(c(OC)c1OC)-c1ccc(N(C)CC(OC)OC)c(=O)cc1[C@@H](NC(C)=O)CC2`: 7.37 µM. With `CC(=O)c1ccc(N2CCN(c3ccc(C(F)(F)F)cn3)CC2)cc1`, the 50% inhibitory concentration (IC50) was 8.99 µM.

As to `Cc1csc2ncnc(NCCc3ccccn3)c12`, the IC50 was 7.09 µM. The same measure for `Cn1c(=O)c2c(nc(NCc3ccco3)n2Cc2ccc(Cl)cc2Cl)n(C)c1=O`: 0.647 µM; for `CC(C)(C)OC(=O)N1CCC(c2cc(-c3cccs3)n[nH]2)CC1`: > 20 µM (inactive). For `CCOC(=O)c1sc2nc(CC(=O)OC)nc(NCc3ccc(Cl)cc3)c2c1C`, the IC50 was 9.23 µM.

As to `N=c1c2c(n(Cc3ccc(F)cc3)c3c1CCC3)CCCC2`, the IC50 is 3.82 µM. The same measure for `O=C(c1cc(COc2cccc3cnccc23)on1)N1CCCC(CCCO)C1` (configuration not stated): 1.53 µM; for `CC(C)Cc1ccc(C(C)C(=O)Nc2cccnc2)cc1` (configuration not stated): 13 µM. The same measure for `CC(=O)N1c2ccc(S(=O)(=O)N3CCC(C(=O)N4CCCCC4)CC3)cc2CC1C` (configuration not stated): 16.9 µM. Next, `CN1/C(=C\C=N\NC(=O)c2ccc(O)cc2)C(C)(C)c2ccccc21`: 4.34 µM. For the compound `CCn1cc[n+](C)c1P(c1ccccc1)c1ccccc1`, the IC50 is 8.57 µM. With `CC(C)(C)[C@H]1COC(=O)[C@H](NC(=O)OCC2c3ccccc3-c3ccccc32)C/C=C\C[C@@H](CC(=O)N[C@@H](CO)Cc2ccccc2)C(=O)N1`, the IC50 is 11.9 µM. Next, `Cc1ccc(OCCOC(=O)c2cc(S(=O)(=O)N3CCCCC3)ccc2N2CCOCC2)cc1`: > 20 µM (inactive); `CCCOc1ccc(Br)cc1CSC(=N)N`: 9.84 µM; `Cc1nn(C)c(C(=O)NCc2ccc(Cl)cc2)c1Cl`: 8.1 µM. Next, `Clc1ccc(-c2c[n+](Cc3ccc(Cl)cc3Cl)c3n2CCCCC3)cc1`: 5.31 µM. With `Cc1ccc(NC(=O)COc2ccccc2C(N)=O)cc1S(=O)(=O)N1CCCCCC1`, the IC50 was 12.3 µM. Next, `COc1ccc(Nc2nc(N3CCOCC3)nc(N3CCOCC3)n2)c(OC)c1`: > 20 µM (inactive); `CC(C)(C)C1CCC(OC(=O)C[N+]2(C)CCCCC2)CC1` (configuration not stated): > 20 µM (inactive); `CCOc1ccc(-c2cc(C)[n+](CCO)c(-c3ccc(OCC)cc3)c2)cc1`: 14.8 µM. The same measure for `CCC(C)CCN1C(N(C)C)=NC[C@@H]1CC(C)C` (some centres not stated): 7.98 µM; for `CC1CCN(Cc2c(C(=O)N/N=C/c3ccccc3O)nnn2-c2nonc2N)CC1`: 5.56 µM; for `COc1ccc(NC(=S)N2CCC(Cc3ccccc3)CC2)cc1`: 16.6 µM.

Take `O=C1N/C(=C\c2ccc(O)cc2)C(O)=C1C=NCc1ccccc1`: the IC50 is 4.73 µM. As for `O=C(Cn1c(-c2ccccc2)c[n+]2ccsc12)c1ccc(Br)cc1`, the IC50 is > 20 µM (inactive).

As to `Cc1nnsc1C(=O)Nc1ccc(S(=O)(=O)N2CCC(C)CC2)cc1`, the IC50 was > 20 µM (inactive). In the case of `CC[N+](C)(CC)CCC(c1ccccc1)C1CCCCC1` (configuration not stated), the concentration for half-maximal inhibition (IC50) was 13.1 µM. Regarding `COc1cc(C(=O)NC2CCN(C)CC2)ccc1Nc1ncc2c(n1)N(CCc1ccccc1)CCC(=O)N2C`, the IC50 is 4.62 µM. The same measure for `CCOC(=O)c1ccc(NC(=O)Cn2cnc3cc(C)c(C)cc32)cc1`: 2.75 µM; for `COc1ccc(NS(=O)(=O)c2ccc(N3CCOCC3)c(N)c2)cc1`: 5.16 µM.

With `COc1ccc(-c2nn(-c3ccccc3)cc2/C=N/NC(=O)c2ccc(Br)o2)cc1`, the IC50 is 5.42 µM. The same measure for `CCC(=O)c1ccc(OCC(O)Cn2c(C)nc3ccccc32)cc1` (configuration not stated): 7.89 µM; for `O=C(NCCNc1ccnc2cc(Cl)ccc12)c1ccccc1F`: 8.19 µM; for `Cc1nc2ccccc2c2oc(C(=O)N3CCN(C4CCCCC4)CC3)cc12`: 18.7 µM. For the compound `COc1ccc(C(=O)C[n+]2cc(-c3ccc(OC)cc3)n3c2CCCC3)cc1`, the concentration for half-maximal inhibition (IC50) is 6.41 µM. Next, `O=C(N[C@@H]1C/C=C\C[C@@H](CC(=O)N(CCO)Cc2ccccc2)C(=O)N[C@@H](c2ccccc2)COC1=O)OCC1c2ccccc2-c2ccccc21`: 11.9 µM; `O=C(Nc1ccccc1)C1=C[C@@H](C2CCCCC2)C[C@@H](OCCCCO)O1`: 1.96 µM; `CCOc1ccc(S(=O)(=O)NCc2ccncc2)cc1NC(=O)c1ccccc1`: 0.94 µM. For `Cc1ccsc1CNc1ncnc2ccc(-c3c(C)noc3C)cc12`, the IC50 is 4.5 µM. The same measure for `CCOc1ccc(-c2nc(CSCC(=O)NC3CC3)c(C)o2)cc1`: 0.377 µM; for `c1ccc(-c2c[n+]3c(n2-c2ccccc2)SCC3)cc1`: 9.72 µM. The same measure for `CC(Sc1nc2ccccc2c(=O)n1C)C(=O)NC1CCCCC1C` (configuration not stated): 11.5 µM; for `CC(C)(C)[C@H]1COC(=O)[C@H](NC(=O)OCC2c3ccccc3-c3ccccc32)C/C=C\C[C@@H](CC(=O)N(CCO)Cc2ccccc2)C(=O)N1`: 11.8 µM; for `CCCCOc1ncnc2c1[nH]c1ccc(F)cc12`: 4.85 µM. In the case of `O=C(c1cc2nc(-c3ccc(F)cc3)cc(C(F)(F)F)n2n1)N1CCCCC1c1cccnc1` (configuration not stated), the IC50 was > 20 µM (inactive). The same measure for `CC(=O)c1c(C)[nH]c(C(=O)OCC(=O)Nc2cccc(S(=O)(=O)N3CCCC3)c2)c1C`: 6.51 µM; for `Cc1nc2ccccc2n1Cc1ccc(Br)cc1`: 4.73 µM. The same measure for `CC(=O)c1cn(Cc2ccccc2F)c2ccccc12`: 8.82 µM; for `CCCN(CCC)CCNC(=O)c1cc2c(=O)n(C)c3ccccc3c2n1C`: > 20 µM (inactive); for `O=C(NC1CCCC1)c1cc(COc2ccc3ncccc3c2)on1`: 5.18 µM. The same measure for `C[N+]1(CC(=O)OC2CCCCCCCCCCC2)CCCC1`: 19.3 µM; for `CCOC(=O)N1CCN(C(=O)c2ccc(CSc3ccc(Cl)cc3)cc2)CC1`: 10.8 µM. For the compound `COc1ccc(CNc2cc(C)nc3ncnn23)c(OC)c1`, the 50% inhibitory concentration (IC50) is 10.6 µM.

Regarding `Clc1ccc(-n2cc(-c3ccc(Br)cc3)[n+]3c2CCCCC3)cc1`, the IC50 is 7.04 µM.

Regarding `CCC(C)NC(=O)CCC(=O)OC1O[C@H]2OC3(C)CC[C@H]4[C@H](C)CCC(C1C)C24OO3` (some centres not stated), the concentration for half-maximal inhibition (IC50) was 0.421 µM. Take `FC(F)(F)c1ccc(N2CCN(c3cc(-c4ccccc4)nc4ncnn34)CC2)nc1`: the IC50 was 3.6 µM. The same measure for `CCCCN(C(C)=O)c1ccc2c(c1)C1CC2CCN1C(=O)OCc1ccccc1` (configuration not stated): 6.13 µM; for `CCCCCCCN1C2=NCCCN2c2ccccc21`: 11.4 µM. Next, `Cc1sc2ncnc(NCc3cccs3)c2c1C`: 8.05 µM; `Cc1ccc(S(=O)(=O)N2CCN(C(=O)c3ccc(S(=O)(=O)N4CCCC4)cc3)CC2)cc1`: > 20 µM (inactive). The same measure for `COc1ccc(CN(C)Cc2nc(Cc3cccc(F)c3)no2)c2cccnc12`: 5.96 µM; for `COCCNc1nc2c(c(=O)n(C)c(=O)n2C)n1Cc1cccc(C(F)(F)F)c1`: 3.55 µM. `CNc1nc(NCc2ccccc2)c2ccccc2n1`: the IC50 was 20 µM.
